Assay [1] deals with HIV-1. As to conditions: cited from earlier work.
The subject of another assay is SARS-CoV-2. Description: SARS-CoV-2 genome equivalents in supernatant by qRT-PCR (Example 39). In kind it is cell-based. The note with it: 24 hours-post infection, four highest doses. The text has this: The Vero 81 cells described above were subjected to genome analysis determine whether the inhibition of SARS-CoV-2 was at the level of total or infectious particle production. RNA was extracted from the cell culture supernatants of the prophylactic study, and genomic equivalents were quantified via qRT-PCR (Example 39). The prophylactic effect of oleandrin, initially observed via infectious assay, was confirmed at the level of genome equivalents. […]
To quantify genome copies for the samples, 200 μl of sample was extracted with a 5:1 volume ratio of TRIzol LS (Ambion, Carlsbad, Calif.), utilizing standard manufacturers protocols and resuspending in 11 μl water. Extracted RNA were tested for SARS-CoV-2 by qRT-PCR following a previously published assay (26). Briefly, the N gene was amplified using the following primers and probe: forward primer [5′-[…]-3′] (SEQ ID NO. 1); reverse primer [5′-[…]-3′] (SEQ ID NO. 2); and probe [5′-FAM-[…]-TAMRA-3′; (SEQ ID NO. 3)]. […]
For orientation: Real-time PCR tracks product formation cycle by cycle.

The subject of assay [2] is HIV-1. The note with it: Singh et al. 2013; cited from earlier work.
The subject of assay [3] is DENV2 (08-10381 Montserrat strain). Description: CPE-based antiviral assay, DENV2, neutral red readout (Example 14). In kind it is cell-based, Dengue virus. As to conditions: 7 days post infection. How it is done:
A CPE-based antiviral assay was performed by infecting target cells in the presence or absence of test compositions, at a range of concentrations. […] cytopathic effects and cell death. […] For CPE-based assays, cell viability was determined with a neutral red readout. Viable cells incorporate neutral red in their lysosomes. Uptake of neutral red relies on the ability of live cells to maintain a lower pH inside their lysosomes than in the cytoplasm, and this active process requires ATP. Once inside the lysosome, the neutral red dye becomes charged and is retained intracellularly. […] The amount of neutral red in solution was quantified by reading the absorbance (optical density) of each well at 490 nm […]
Cytotoxic effects were evaluated in uninfected cells by comparing viability in the presence of inhibitors to the viability of mock-treated cells. Cytotoxicity was determined by an XTT viability assay, which was conducted at the same timepoint as the readout for the corresponding infection assay.
Test compositions were dissolved in 100% methanol. […] When possible, the EC50 and CC50 of the composition was determined for each assay using GraphPad Prism software. […]
Protection of DENV2-induced cytopathic effect (CPE) with Neutral Red readout: For the DENV2 antiviral assay, the 08-10381 Montserrat strain was used. […]

Assay [4] deals with HTLV-1. The assay can be described thus: Virological synapse formation and HTLV-1 transmission, SLB1/pLenti-GFP with huPBMCs, fluorescence microscopy. In kind it is cell-based, human T-cell leukemia virus type-1. As to conditions: in vitro co-culture.
In another assay the test system is Ebolavirus (EBOV/Kik). It counts as cell-based. The note with it: based on the oleandrin content; final concentration of compositions 20 microg/mL.
Assay [5] deals with HTLV-1. The assay can be described thus: Infectivity of HTLV-1 particles from treated SLB1 cells on primary huPBMCs, p19Gag ELISA. In kind it is cell-based, human T-cell leukemia virus type-1. The note with it: even the lowest concentration (10 μg/ml); relative to vehicle control.

With `CO[C@H]1C[C@H](O[C@H]2CC[C@@]3(C)[C@H](CC[C@@H]4[C@@H]3CC[C@]3(C)[C@@H](C5=CC(=O)OC5)[C@@H](OC(C)=O)C[C@]43O)C2)O[C@@H](C)[C@@H]1O` [oleandrin], the “anti-viral activity against HIV-1” value in the assay on HIV-1 [1] is recorded as “anti-HIV activity”. Moreover, the “SARS-CoV-2 genomes in the supernatant” value in the assay with SARS-CoV-2 is on record as “significantly decreased”. Further, the “HIV-1 viral infectivity in vitro” value in the assay with HIV-1 [2] is “inhibit viral infectivity in vitro”. In assay [3], the “efficacy against Dengue virus” value is listed as “demonstrates efficacy”. In addition, the “formation of virological synapses and transmission of HTLV-1” value with HTLV-1 [4] is “inhibited the formation of virological synapses and the transmission of HTLV-1”. For the same compound, in the assay with Ebolavirus (EBOV/Kik), the “efficacy against Ebolavirus” value was “efficacious”. Also, in the assay with HTLV-1 [5], the “infectivity of newly-synthesized p19Gag-containing virus particles” value was “inhibited the infectivity”.

Source of the values: patent publication US11806359B2 (priority 2020, dated 2023).
